According to patent US7741124B2, “Detection procedures for fibrinogen and/or fibrinogen derivatives” (priority 2003, dated 2010):

Legend:
Assay type in all cases: biochemical
[1] = molecular target: T1, fibrinogen (Homo sapiens, UniProt P02671+P02675+P02679); assay: FIATA optimization: turbidity in dependence of vancomycin concentration
T1 construct: pooled patient plasma (P-Pool, n=32 single plasmas); from tissue; host or cells: pooled citrated patient plasma (P-Pool, Fbgen-Pool-Plasma)
T1 sequence (P02671 20-644 isoform P02671-2 limits assumed): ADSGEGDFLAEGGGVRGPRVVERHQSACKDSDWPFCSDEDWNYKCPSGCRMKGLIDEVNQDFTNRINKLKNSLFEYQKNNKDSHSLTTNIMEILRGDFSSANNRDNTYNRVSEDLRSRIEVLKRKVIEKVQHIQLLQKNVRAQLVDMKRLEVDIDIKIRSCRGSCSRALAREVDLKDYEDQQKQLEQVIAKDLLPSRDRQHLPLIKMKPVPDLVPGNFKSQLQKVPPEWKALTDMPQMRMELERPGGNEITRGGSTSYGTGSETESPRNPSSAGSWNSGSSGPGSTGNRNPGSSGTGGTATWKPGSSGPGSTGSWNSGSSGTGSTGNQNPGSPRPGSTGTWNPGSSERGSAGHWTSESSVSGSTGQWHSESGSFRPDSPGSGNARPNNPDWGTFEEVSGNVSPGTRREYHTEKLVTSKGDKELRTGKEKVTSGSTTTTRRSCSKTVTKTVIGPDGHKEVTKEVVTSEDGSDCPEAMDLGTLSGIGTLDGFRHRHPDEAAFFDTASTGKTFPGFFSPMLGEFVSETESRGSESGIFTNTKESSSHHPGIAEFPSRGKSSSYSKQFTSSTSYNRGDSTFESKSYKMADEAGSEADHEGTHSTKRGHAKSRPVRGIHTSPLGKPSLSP
T1 sequence (P02675 31-491): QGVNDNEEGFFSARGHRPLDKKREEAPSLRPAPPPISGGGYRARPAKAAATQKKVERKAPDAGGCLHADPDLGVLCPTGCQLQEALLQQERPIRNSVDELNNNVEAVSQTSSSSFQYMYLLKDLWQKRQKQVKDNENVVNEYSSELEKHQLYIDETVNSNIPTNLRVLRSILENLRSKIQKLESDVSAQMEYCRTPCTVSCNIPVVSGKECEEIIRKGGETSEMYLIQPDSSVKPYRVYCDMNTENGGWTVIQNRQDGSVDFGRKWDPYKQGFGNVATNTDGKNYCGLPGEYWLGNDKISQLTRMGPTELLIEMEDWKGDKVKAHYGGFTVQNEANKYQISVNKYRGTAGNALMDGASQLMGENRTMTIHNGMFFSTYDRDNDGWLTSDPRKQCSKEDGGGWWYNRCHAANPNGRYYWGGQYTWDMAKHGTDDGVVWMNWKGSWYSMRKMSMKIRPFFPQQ
T1 sequence (P02679 27-437 isoform P02679-2 limits assumed): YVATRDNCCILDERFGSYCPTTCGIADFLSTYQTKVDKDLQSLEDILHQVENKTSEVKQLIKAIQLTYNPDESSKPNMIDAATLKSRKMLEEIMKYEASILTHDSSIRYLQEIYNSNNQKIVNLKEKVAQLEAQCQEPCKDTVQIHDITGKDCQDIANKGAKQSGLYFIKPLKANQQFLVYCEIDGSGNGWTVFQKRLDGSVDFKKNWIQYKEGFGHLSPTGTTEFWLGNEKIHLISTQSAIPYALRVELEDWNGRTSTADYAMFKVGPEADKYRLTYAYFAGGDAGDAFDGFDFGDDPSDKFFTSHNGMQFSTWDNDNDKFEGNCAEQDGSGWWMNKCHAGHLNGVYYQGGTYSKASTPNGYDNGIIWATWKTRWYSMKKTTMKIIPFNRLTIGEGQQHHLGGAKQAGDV
Protocol: 50 μl P-Pool or 1:2 or 1:4 diluted (in 6% BSA-PBS) P-Pool were incubated with 50 μl 0-6.8 mM vancomycin in PBS. The turbidity increase at 405 nm was determined after 1 min (RT). 25 μl Fbgen-Pool (300% of norm; 8.4 g/l) were incubated with 125 μl 0.55 mM, 1.1 mM, or 2.2 mM vancomycin in PBS for 1 min (RT). Then the turbidity increase at 405 nm was determined.

[2] = molecular target: T2, plasmatic fibrinogen (Homo sapiens, UniProt P02671+P02675+P02679)
T2 construct: pooled patient plasma (P-Pool, n=32 single plasmas); from tissue; host or cells: pooled citrated patient plasma (P-Pool, Fbgen-Pool-Plasma)
T2 sequence (P02671 20-644 isoform P02671-2 limits assumed): T1 sequence (P02671 20-644 isoform P02671-2 limits assumed)
T2 sequence (P02675 31-491): T1 sequence (P02675 31-491)
T2 sequence (P02679 27-437 isoform P02679-2 limits assumed): T1 sequence (P02679 27-437 isoform P02679-2 limits assumed)
Protocol: 25 μl of 143% (4.0 g/l) P-Pool were incubated with 25 μl 0-50 mM vancomycin in PBS, 50 μl PBS, 0.1% Triton X 100® and 50 μl 850 mM KCl in H2O for 1 min (RT). The turbidity at 405 nm was determined. […] For pH-studies 5 ml P-Pool were mixed with 5 ml PBS and 0-1750 μl 1 M NaHCO3, pH 8.6.
5 ml P-Pool were incubated with 5 ml 4.4 mM vancomycin in PBS for 3 min (RT). Then the reaction mixture was centrifuged at 2500 g (4000 rpm) for 10 min. The supernatant was separated from the precipitate. The precipitate was not washed or was washed 3× with dest. H2O (resuspension, centrifugation, resuspension, . . . ). The unwashed precipitate was solubilized by addition of 500 μl 1 M NaHCO3, pH 8.6, and 4500 μl PBS; the washed precipitate was solubilized by addition of 300 μl 1 M NaHCO3 to 1700 μl in dest. H2O resuspended precipitate. 3 preparations of washed precipitate were also dried at room temperature and the dried precipitates were weighed. The solubilized precipitate and the supernatant were functionally analyzed for fibrinogen. 100 μl 1 M NaHCO3, pH 8.6 were added to 400 μl of the solubilized unwashed precipitate and this solution, the solubilized washed precipitate and the supernatant were analyzed for total protein, albumin concentration, and pseudocholinesterase activity in a Hitachi 917 analyzer, Roche, Basel, Switzerland and for vancomycin in an Integra 800 (Fluorescence Polarisation Immuno Assay); electrophoreses were performed in an agarose gel-based Hydrasis LC-Electrophoresis system (Sebia, Fulda, Germany). For control, 1 ml pooled serum was incubated with 1 ml 4.4 mM vancomycin in PBS, and the vancomycin conc. was determined.

[3] = tested on: t-PA; assay: Stimulation of t-PA by vancomycin-precipitated plasma, plasma system
Protocol: 25 μl P-Pool were incubated with 25 μl 0-50 mM vancomycin in PBS and 50 μl 1000 IU/ml t-PA in PBS, 0.1% Triton X 100® and 25 μl 0 mM or 15 mM chloramine-T® for 30 min (RT). Then 25 μl 2.7 mM Vai-Leu-Lys-pNA, 1.7 M KCl were added and the resulting plasmin activity was determined by measuring linear absorbance increase/min RT in a microtiterplate reader.

[4] = after 1+1 incubation with 4.4 mM vancomycin in PBS

In the case of `CN[C@H](CC(C)C)C(=O)N[C@H]1C(=O)N[C@@H](CC(N)=O)C(=O)N[C@H]2C(=O)N[C@H]3C(=O)N[C@H](C(=O)N[C@H](C(=O)O)c4cc(O)cc(O)c4-c4cc3ccc4O)[C@H](O)c3ccc(c(Cl)c3)Oc3cc2cc(c3O[C@@H]2O[C@H](CO)[C@@H](O)[C@H](O)[C@H]2O[C@H]2C[C@](C)(N)[C@H](O)[C@H](C)O2)Oc2ccc(cc2Cl)[C@H]1O` [vancomycin], the “fibrinogen concentration at saturation of turbidity increase” value ([1]; 68.8 μmoles of vancomycin given to 25 μl 300% Fbgen-Pool) is reported as “about 4 g/l”, the “own turbidity at 405 nm” value ([1]; 4.4 mM vancomycin in PBS, 0% fibrinogen standard in BSA) is reported as under 50 mA and the “fibrinogen concentration at saturation of turbidity increase” value ([1]; 137.5-275 μmoles of vancomycin) is reported as 6 to 8 g/L. The “stability of the turbidity increase” value ([1]; vancomycin in plasma, RT) was “at least 10 min”, the fibrinogen precipitated ([2]; 4.4 mM vancomycin) was 84% and the “fibrinogen remained in the plasma” value ([2]; 4.4 mM vancomycin) was 16%. For the same compound, the “fibrinogen remained of initial 4.0 g/l” value ([2]; 4.4 mM vancomycin, corrected for 1+1 dilution) was 0.64 g/L, the “fibrinogen conc. in the supernatant” value ([2]; 1 part plasma and 1 part 4.4 mM vancomycin in PBS) was 0.32 g/L and the “increase of turbidity of citrated plasma” value ([2]; 25 μl 0-50 mM vancomycin, 25 μl P-Pool, 1 min RT) was “up to 20 fold”. For the same compound, the “vancomycin found in pooled serum” value [2, 4] was 2.1 mM, the “vancomycin found in supernatant of pooled plasma” value [2, 4] was 0.17 mM and the “vancomycin attached to 5 μM precipitating fibrinogen” value ([2]; of 2.2 mM vancomycin in the reaction mixture) was 80 µM. For the same compound, the vancomycin molecules/fibrinogen molecule ([2]; washed precipitate) was 16, the “stimulation of t-PA” value ([3]; 1 part plasma with 1 part 1.5-5 mM vancomycin, oxidation with 1 part 15 mM chloramine-T) was “up to 20 fold” and the “increase of t-PA activity” value ([3]; without oxidation, 2 mM vancomycin, final incubation 158 min (RT)) was 2.5 fold.
